Legend:
C. jejuni 81–176 = experiment: Single step resistance assay at lethal dose (5X MIC) on solid media; type: cell-based, Campylobacter jejuni; details: solid MH agar with 5X MIC, 5 days, 42°C; resistant colonies observed yes/no
Description: Single step and sequential passage resistance assays were performed as described previously with a few modifications (Ling et al., [2015]; Xu et al., [2015]). The top 12 hit compounds were tested in this experiment. The MIC values for each of these 12 compound as determined in above assay was used for C. jejuni resistance studies using lethal (5X MIC) and sub-lethal (0.5X MIC) concentrations.
Campylobacter jejuni grown in MH medium overnight at 42°C was centrifuged at 4700 × g for 10 min at room temperature. The supernatant was discarded and the bacteria were resuspended in MH broth to an OD600 of 1.0 (~1 × 10^9 CFU). Compounds (5X MIC) were mixed with 5 ml of molten MH agar medium and transferred immediately onto small 35 mm petri-plates, agar in the plate was allowed to solidify in the dark. Ten micro liter of culture was transferred to the small molecule containing plates and spread using sterile beads, plates were incubated at 42°C for 5 days in the dark. Bacteria spread on MH agar with 50 μg/mL kanamycin or MH agar alone, were used as positive and negative controls, respectively. After 5 days of incubation, any colonies that developed were assessed for resistance to the test compounds by determining MIC and the MBC as noted above.
Our rationale for performing the resistance studies was to determine the ability of C. jejuni strain to develop resistance to these compounds when cultured on solid media with a lethal dose (5X MIC) or in liquid media with a sub-lethal dose (0.5X MIC). The presence of resistant colonies in any of these assays would reduce the attractiveness of the relevant small molecule while an absence of resistant colonies would indicate a likely inability of C. jejuni to develop resistance in general. […] Since C. jejuni is the major cause of human campylobacteriosis (95% of the cases); (Butzler, [2004]) and due to limitation of compounds availability, we only performed resistance studies on C. jejuni 81–176. However, for future commercial application of these antimicrobials, more in-depth characterization of potential resistance by other C. jejuni strains and C. coli is warranted.

[1] = Cytotoxicity by LDH release; type: cell-based, human; details: human, Caco-2 cells, 24 h, LDH release, no FBS
Description: (§1) We evaluated 12 selected compounds for cytotoxicity to Caco-2 (human colonic carcinoma) cells as described previously (Xu et al., [2015]). The Caco-2 cells were obtained from the American Type Culture Collection (ATCC Rockville, MD) and maintained in minimal essential medium (MEM) supplemented with 20% fetal bovine serum (FBS), 1% non-essential amino acid (NEAA; Life Technologies, NY) and with 1 mM sodium pyruvate at 37°C in a humidified 5% CO2 incubator. A 96-well tissue culture plate was seeded with approximately 1.4 × 10^5 cells per well and incubated for 24 h at 37°C in an incubator until a confluent monolayer formed. It was necessary to assess the dose dependent cytotoxicity effect of DMSO as compounds were diluted in DMSO therefore, we determined the cytotoxic effect of varying concentrations of the DMSO vehicle control (1, 2, and 5%) in Caco-2 cells containing 150 μL of media (without FBS) incubated at 24 h. There was no significant difference among the varying DMSO concentrations and their cytotoxicity values. Therefore, we used 1% DMSO in duplicate wells along with other appropriate controls for cytotoxicity experiment.
(§2) It is likely that the compounds can bind to serum proteins (FBS) present in the media and thus influence the true cytotoxic effect of the compounds; therefore, we performed the cytotoxicity assay in absence of FBS. The cytotoxicity assay was performed according to manufacturer instructions (Pierce TM; Thermo Scientific, IL) and the percentage of cytotoxicity was calculated by measuring the release of lactate dehydrogenase (LDH) enzyme from the treated cells. Briefly, ~1.4 × 10^5 cells were grown in a 96-well tissue culture plate containing 150 μL of growth medium. After three washes with medium without supplementation, 1 μL (200 μM) of compound was added to duplicate wells and incubated for 24 h at 37°C in a humidified, 5% CO2 incubator. Subsequently, 50 μL of supernatants were collected for measuring LDH release and the degree of cytotoxicity was determined according to the manufacturer instructions.
(§3) Three independent experiments were conducted in duplicate samples in each experiment and the average cytotoxicity values were plotted.

[2] = test system: Caco-2 (human colonic carcinoma) cells; experiment: Cytotoxicity by LDH release; type: cell-based; details: Caco-2 cells, 200 μM; for Cytotoxicity (%): 24 h, LDH release, no FBS
Description: as §1, §2, §3

Hemolytic activity = type: cell-based; details: 10% sheep RBCs, 37°C
Description: The hemolytic activity of the top-12 compounds were determined as previously described (Strom et al., [2003]; Selin et al., [2015]). Briefly, 500 μL of sheep red blood cells (LAMPIRE Biological Laboratories, Pipersville, PA) were washed three times in PBS and resuspended in 5 mL of PBS to prepare a working concentration of 10% RBCs. Two hundred micro liter of the 10% RBCs suspension was incubated with 200 μM concentrations of compounds for 1 h at 37°C in a 96 well plate. After incubation, the plate was centrifuged (4000 rpm, 5 min) and placed on ice for few min. Supernatants from each well was transferred to a fresh 96 well plate and OD of 540 nm was measured. The PBS and 0.1% Triton X-100 were used as negative and positive controls, respectively. A range of 1–10% DMSO was also used as a control. A percent hemolysis was calculated using the following formula:
% Hemolysis=(OD of compound−OD of DMSO/ OD of Triton-X100)×100
Two independent experiments in triplicate were performed and results were expressed as the % average hemolysis.

[3] = sheep red blood cells (10% suspension)

O=S(=O)(Nc1cccc(C(F)(F)F)c1)c1ccc(Br)cc1 [Comp 1]
Resistance, single step 5X MIC (C. jejuni 81–176): No
cytotoxicity at 24 h, 200 µM [1]: 30.3%
Relative cytotoxicity among the 12 compounds [2]: highest cytotoxicity
hemolysis at 1 h, 200 µM (Hemolytic activity; [3]): 7.4%

COc1ccc(CN2CCN(c3ccc(F)cc3)CC2)cc1C [Comp 2]
Resistance, single step 5X MIC (C. jejuni 81–176): No
cytotoxicity at 24 h, 200 µM [1]: ≤ 10%
Cytotoxicity (%) [2]: 6.9%
hemolysis at 1 h, 200 µM (Hemolytic activity): 0%

CN(C)c1ccc(CN2CCN(c3ccccc3Cl)CC2)cc1 [Comp 3]
Resistance, single step 5X MIC (C. jejuni 81–176): No
cytotoxicity at 24 h, 200 µM [1]: 11.3%
hemolysis at 1 h, 200 µM (Hemolytic activity): 0%

Clc1ccc(N2CCN(Cc3ccsc3)CC2)cc1 [Comp 4]
Resistance, single step 5X MIC (C. jejuni 81–176): No
Cytotoxicity (%) [2]: 4.6%
hemolysis at 1 h, 200 µM (Hemolytic activity; [3]): 0%

Cc1ccc(N2CCN(C/C=C/c3ccccc3)CC2)cc1 [Comp 5]
Resistance, single step 5X MIC (C. jejuni 81–176): No
cytotoxicity at 24 h, 200 µM [1]: ≤ 10%
Cytotoxicity (%) [2]: 6.5%
hemolysis at 1 h, 200 µM (Hemolytic activity; [3]): 0%

O=c1c(Cl)c(Cl)cnn1-c1ccccc1Cl [Comp 7]
Resistance, single step 5X MIC (C. jejuni 81–176): No
cytotoxicity at 24 h, 200 µM [1]: 28%
hemolysis at 1 h, 200 µM (Hemolytic activity; [3]): 0%

Cc1c(C(C)NCc2cccc(OC3CCCC3)c2)cnn1-c1ccccc1 (centres unmarked) [Comp 10]
Resistance, single step 5X MIC (C. jejuni 81–176): No
cytotoxicity at 24 h, 200 µM [1]: 27.8%
hemolysis at 1 h, 200 µM (Hemolytic activity; [3]): 0%

COc1ccc(CNCc2ccc(Cl)s2)cc1OCC(O)CN1CCCC1 (centres unmarked) [Comp 12]
Resistance, single step 5X MIC (C. jejuni 81–176): No
Relative cytotoxicity among the 12 compounds [2]: least cytotoxic
Cytotoxicity (%) [2]: 0%
hemolysis at 1 h, 200 µM (Hemolytic activity; [3]): 0%

CN(Cc1cccc2cnccc12)CC1CCCN(CCc2ccc(F)cc2)C1 (centres unmarked) [Comp 13]
Resistance, single step 5X MIC (C. jejuni 81–176): No
Relative cytotoxicity among the 12 compounds [2]: least cytotoxic
Cytotoxicity (%) [2]: 0%
hemolysis at 1 h, 200 µM (Hemolytic activity; [3]): 0%

CN(CC(O)COc1ccccc1CNC1(c2ccccc2)CC1)C1CCCCC1 (centres unmarked) [Comp 17]
Resistance, single step 5X MIC (C. jejuni 81–176): No
cytotoxicity at 24 h, 200 µM [1]: 16.6%
hemolysis at 1 h, 200 µM (Hemolytic activity; [3]): 0%

CN(Cc1ccccc1)CC1CCCN(CCc2ccc(F)cc2)C1 (centres unmarked) [Comp 18]
Resistance, single step 5X MIC (C. jejuni 81–176): No
cytotoxicity at 24 h, 200 µM [1]: 8.8%
hemolysis at 1 h, 200 µM (Hemolytic activity; [3]): 0%

CC(=O)Nc1ccc(CN(C)CC2CCCN(CCc3cccc(C(F)(F)F)c3)C2)cc1 (centres unmarked) [Comp 22]
Resistance, single step 5X MIC (C. jejuni 81–176): No
cytotoxicity at 24 h, 200 µM [1]: 12.1%
hemolysis at 1 h, 200 µM (Hemolytic activity; [3]): 0%

From publication PMC4821856, “Novel Anti-Campylobacter Compounds Identified Using High Throughput Screening of a Pre-selected Enriched Small Molecules Library” (Frontiers in Microbiology, 2016)
